Measurements: patent US11325980B2, “Combination therapy using a LIV1-ADC and a chemotherapeutic” (SEATTLE GENETICS, INC., priority 2016, dated 2022)

System: MCF-7 cells
Experiment: In vivo tumor growth inhibition (TGI), MCF-7 cells implanted subcutaneously in NSG mice
Design: species or system NOD Scid Gamma (NSG) mice
Settings: for ranking of combinatorial benefit in vivo: combined with SGN-LIV1A, doses of Table 2, nab-paclitaxel 10 mg/kg; for Expected combination TGI: expected additive; for Combinatorial benefit: observed minus expected combination TGI; for TGI: single agent
Procedure: NOD Scid Gamma (NSG) mice were obtained from Jackson Laboratory and implanted with 17-β-estradiol pellet (Innovative Research of America; Sarasota, Fla.) one day prior to cell implant. Five million MCF-7 cells were implanted subcutaneously with Matrigel (BD Biosciences; Franklin Lakes, N.J.) and tumor volume was determined by a digital caliper twice a week, using the formula: volume=½×length width^2.
Mice received treatments when the average tumor volume reached 100 mm^3. The treatment regimen for each agent was: doxorubicin, 1 mg/kg q4dx3 intravenous (IV); SGN-LIV1, 1 mg/kg q4dx4 intraperitoneal (IP); […]; carboplatin 10 mg/kg q7dx3 IP; cyclophosphamide, 40 mg/kg q7dx3 IV; gemcitabine 20 mg/kg q7dx2 IP; and paclitaxel 10 mg/kg q3dx5 IP. Combination groups received the first dose of SGN-LIV1A and combination drug on the same day. n=6 for each group. The effects of each drug and their combination on tumor growth were plotted in FIGS. 6-8.
To determine the combined benefit in vivo, tumor growth inhibition (TGI) was compared using the area under the curve between untreated, single agent groups, and combined groups on the date the untreated animals were euthanized (Table 2). […] Thus, the expected additive TGI for combination is […].

[1] = named drug 10 mg/kg combined with 1 mg/kg SGN-LIV1A
[2] = named drug 40 mg/kg combined with 1 mg/kg SGN-LIV1A
[3] = named drug 1 mg/kg combined with 1 mg/kg SGN-LIV1A
[4] = dose 1 mg/kg, AUC vs untreated on the date untreated animals were euthanized
[5] = named drug 20 mg/kg combined with 1 mg/kg SGN-LIV1A

Molecule: N.N.O=C([O-])C1(C(=O)[O-])CCC1.[Pt+2] [carboplatin]
- ranking of combinatorial benefit in vivo: highest combinatorial benefit
- Observed combination TGI [1]: 60%
- Expected combination TGI [1]: 52%
- Combinatorial benefit (named drug 10 mg/kg with 1 mg/kg SGN-LIV1A): 8%
- TGI (dose 10 mg/kg, AUC vs untreated): 21%

Molecule: O=P1(N(CCCl)CCCl)NCCCO1 (centres unmarked) [cyclophosphamide]
- Observed combination TGI [2]: 39%
- Expected combination TGI [2]: 45%
- Combinatorial benefit (named drug 40 mg/kg with 1 mg/kg SGN-LIV1A): −6%
- TGI (dose 40 mg/kg, AUC vs untreated): 10%

Molecule: COc1cccc2c1C(=O)c1c(O)c3c(c(O)c1C2=O)C[C@@](O)(C(=O)CO)C[C@@H]3O[C@H]1C[C@H](N)[C@H](O)[C@H](C)O1 [doxorubicin]
- ranking of combinatorial benefit in vivo: highest combinatorial benefit
- Observed combination TGI [3]: 75%
- Expected combination TGI [3]: 55%
- Combinatorial benefit (named drug 1 mg/kg with 1 mg/kg SGN-LIV1A): 20%
- TGI [4]: 26%

Molecule: Nc1ccn([C@@H]2O[C@H](CO)[C@@H](O)C2(F)F)c(=O)n1 [gemcitabine]
- Observed combination TGI [5]: 54%
- Expected combination TGI [5]: 51%
- combined effect in vivo (named drug 20 mg/kg when combined with SGN-LIV1A): nearly additive
- Combinatorial benefit (named drug 20 mg/kg with 1 mg/kg SGN-LIV1A): 3%
- TGI (dose 20 mg/kg, AUC vs untreated): 20%

B1: SGN-LIV1A: LIV-1-directed antibody-drug conjugate: humanized antibody hLIV22, valine-citrulline linker, monomethyl auristatin E; average of 4 MMAE per antibody (conjugate, chains of the INN, looked up)
VH: QVQLVQSGAEVKKPGASVKVSCKASGLTIEDYYMHWVRQAPGQGLEWMGWIDPENGDTEYGPKFQGRVTMTRDTSINTAYMELSRLRSDDTAVYYCAVHNAHYGTWFAYWGQGTLVTVSS
VL: DVVMTQSPLSLPVTLGQPASISCRSSQSLLHSSGNTYLEWYQQRPGQSPRPLIYKISTRFSGVPDRFSGSGSGTDFTLKISRVEAEDVGVYYCFQGSHVPYTFGGGTKVEIK
modifications: vedotin (vc-MMAE)
notes: LIV-1-directed antibody-drug conjugate: humanized antibody hLIV22, valine-citrulline linker, monomethyl auristatin E; average of 4 MMAE per antibody
- TGI [4]: 39%
